Test results: patent publication US9637483B2, “Heterocyclic compound” (TAKEDA PHARMACEUTICAL COMPANY LIMITED, priority 2013, dated 2017)

How the values were obtained:
Assay type in all cases: biochemical
JAK1 = biological target: T1, JAK1 (Homo sapiens, UniProt P23458); experiment: JAK1 enzyme inhibition test (LANCE method); conditions: 1 μM test compound; for inhibition at 1 µM: read-out: JAK1 enzyme inhibitory activity (%, 1 μM)
T1 construct: purchased Invitrogen
Procedure, shortened: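 TR-FRET (LANCE) with ULight-JAK1 peptide (300 nM working solution) and ATP (150 μM working solution) in HEPES pH 7.5, MgCl2, EGTA, DTT buffer; 1 h at room temperature. EDTA stop plus Eu-anti-phosphotyrosine antibody, 665 nm read after 1 h. Inhibition relative to enzyme-free wells as 100%.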

JAK2 = biological target: T2, JAK2 (Homo sapiens, UniProt O60674); experiment: JAK2 enzyme inhibition test (LANCE method); conditions: 1 μM test compound; for inhibition at 1 µM: read-out: JAK2 enzyme inhibitory activity (%, 1 μM)
T2 construct: purchased Invitrogen
T2 sequence (O60674 whole entry): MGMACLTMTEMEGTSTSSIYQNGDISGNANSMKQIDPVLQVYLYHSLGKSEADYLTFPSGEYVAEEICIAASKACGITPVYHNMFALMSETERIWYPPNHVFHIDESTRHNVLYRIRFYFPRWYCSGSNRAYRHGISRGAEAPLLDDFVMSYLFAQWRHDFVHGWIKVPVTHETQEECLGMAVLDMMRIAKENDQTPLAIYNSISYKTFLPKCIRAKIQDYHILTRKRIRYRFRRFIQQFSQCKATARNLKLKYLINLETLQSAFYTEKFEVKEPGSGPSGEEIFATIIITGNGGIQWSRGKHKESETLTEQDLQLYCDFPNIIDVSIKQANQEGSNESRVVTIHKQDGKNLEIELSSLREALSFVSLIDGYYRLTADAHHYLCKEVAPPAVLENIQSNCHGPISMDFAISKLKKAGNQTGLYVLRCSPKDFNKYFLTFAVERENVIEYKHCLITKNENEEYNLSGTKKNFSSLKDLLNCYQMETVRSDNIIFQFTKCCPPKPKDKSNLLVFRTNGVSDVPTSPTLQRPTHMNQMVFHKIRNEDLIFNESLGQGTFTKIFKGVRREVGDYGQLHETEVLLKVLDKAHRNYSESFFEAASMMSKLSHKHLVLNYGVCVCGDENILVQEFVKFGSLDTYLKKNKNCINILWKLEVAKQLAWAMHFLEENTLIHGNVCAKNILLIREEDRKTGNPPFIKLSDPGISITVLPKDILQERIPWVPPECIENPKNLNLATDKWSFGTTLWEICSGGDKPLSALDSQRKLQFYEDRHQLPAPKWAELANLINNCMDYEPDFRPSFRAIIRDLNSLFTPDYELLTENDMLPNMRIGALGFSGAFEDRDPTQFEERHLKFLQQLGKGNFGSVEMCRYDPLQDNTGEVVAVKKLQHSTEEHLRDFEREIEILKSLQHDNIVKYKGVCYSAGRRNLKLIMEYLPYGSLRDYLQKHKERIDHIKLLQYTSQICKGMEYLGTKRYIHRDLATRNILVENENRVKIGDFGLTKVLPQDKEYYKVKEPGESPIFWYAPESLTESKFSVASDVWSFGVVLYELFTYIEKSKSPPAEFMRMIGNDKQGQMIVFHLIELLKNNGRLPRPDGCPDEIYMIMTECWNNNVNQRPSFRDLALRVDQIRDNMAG
Procedure, shortened: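 Recombinant JAK2 (6 ng/mL solution) phosphorylated ULight-JAK1 peptide (300 nM solution) with ATP (45 μM solution) in pH 7.5 HEPES/MgCl2/DTT buffer for 1 hr at room temperature. After EDTA stop and europium anti-phosphotyrosine antibody for 1 hr, TR-FRET read at 665 nm; inhibition relative to enzyme-free wells as 100%.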

JAK3 = biological target: T3, JAK3 (Homo sapiens, UniProt P52333); experiment: JAK3 enzyme inhibition test (LANCE method); conditions: 1 μM test compound; for inhibition at 1 µM: read-out: JAK3 enzyme inhibitory activity (%, 1 μM)
T3 construct: purchased Invitrogen
T3 sequence (P52333 1-1124): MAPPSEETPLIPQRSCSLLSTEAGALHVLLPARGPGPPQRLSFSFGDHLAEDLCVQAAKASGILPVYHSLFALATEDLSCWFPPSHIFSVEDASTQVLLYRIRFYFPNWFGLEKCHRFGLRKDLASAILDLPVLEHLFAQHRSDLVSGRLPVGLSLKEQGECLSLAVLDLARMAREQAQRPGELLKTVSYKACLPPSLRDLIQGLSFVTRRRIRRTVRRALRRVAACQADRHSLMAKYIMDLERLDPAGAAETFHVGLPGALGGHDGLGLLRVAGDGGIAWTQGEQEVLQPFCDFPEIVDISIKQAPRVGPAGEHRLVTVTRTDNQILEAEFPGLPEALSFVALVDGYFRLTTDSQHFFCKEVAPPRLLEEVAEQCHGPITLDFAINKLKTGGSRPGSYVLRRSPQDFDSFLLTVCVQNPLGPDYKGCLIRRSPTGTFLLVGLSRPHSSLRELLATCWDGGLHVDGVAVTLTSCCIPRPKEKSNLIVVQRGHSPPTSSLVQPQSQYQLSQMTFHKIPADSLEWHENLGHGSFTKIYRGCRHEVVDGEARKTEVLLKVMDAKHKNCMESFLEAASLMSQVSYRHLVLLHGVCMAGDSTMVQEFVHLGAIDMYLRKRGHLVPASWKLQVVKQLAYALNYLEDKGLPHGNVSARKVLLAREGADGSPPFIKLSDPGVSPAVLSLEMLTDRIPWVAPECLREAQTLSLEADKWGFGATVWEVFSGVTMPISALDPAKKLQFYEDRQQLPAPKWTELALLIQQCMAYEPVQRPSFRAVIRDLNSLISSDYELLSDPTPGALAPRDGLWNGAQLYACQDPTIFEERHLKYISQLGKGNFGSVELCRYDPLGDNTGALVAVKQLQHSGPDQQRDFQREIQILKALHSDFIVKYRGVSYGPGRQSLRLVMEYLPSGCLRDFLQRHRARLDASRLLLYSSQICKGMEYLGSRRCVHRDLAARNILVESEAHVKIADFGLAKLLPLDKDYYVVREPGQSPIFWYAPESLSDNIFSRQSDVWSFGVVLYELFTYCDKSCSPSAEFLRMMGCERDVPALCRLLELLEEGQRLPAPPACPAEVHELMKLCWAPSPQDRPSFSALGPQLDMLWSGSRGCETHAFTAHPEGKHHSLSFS
Procedure, shortened: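 Recombinant JAK3 (12 ng/mL solution) with ULight-JAK1 peptide (300 nM solution) and ATP (15 μM solution) in HEPES pH 7.5 buffer, 1 h at room temperature. EDTA stop with Eu-anti-phosphotyrosine antibody; TR-FRET at 665 nm. Inhibition relative to enzyme-free wells as 100%.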

TYK2 = biological target: T4, TYK2 (Homo sapiens, UniProt P29597); experiment: TYK2 enzyme inhibition test (LANCE method); conditions: 1 μM test compound; for inhibition at 1 µM: read-out: TYK2 enzyme inhibitory activity (%, 1 μM)
T4 construct: purchased Invitrogen
T4 sequence (P29597 whole entry): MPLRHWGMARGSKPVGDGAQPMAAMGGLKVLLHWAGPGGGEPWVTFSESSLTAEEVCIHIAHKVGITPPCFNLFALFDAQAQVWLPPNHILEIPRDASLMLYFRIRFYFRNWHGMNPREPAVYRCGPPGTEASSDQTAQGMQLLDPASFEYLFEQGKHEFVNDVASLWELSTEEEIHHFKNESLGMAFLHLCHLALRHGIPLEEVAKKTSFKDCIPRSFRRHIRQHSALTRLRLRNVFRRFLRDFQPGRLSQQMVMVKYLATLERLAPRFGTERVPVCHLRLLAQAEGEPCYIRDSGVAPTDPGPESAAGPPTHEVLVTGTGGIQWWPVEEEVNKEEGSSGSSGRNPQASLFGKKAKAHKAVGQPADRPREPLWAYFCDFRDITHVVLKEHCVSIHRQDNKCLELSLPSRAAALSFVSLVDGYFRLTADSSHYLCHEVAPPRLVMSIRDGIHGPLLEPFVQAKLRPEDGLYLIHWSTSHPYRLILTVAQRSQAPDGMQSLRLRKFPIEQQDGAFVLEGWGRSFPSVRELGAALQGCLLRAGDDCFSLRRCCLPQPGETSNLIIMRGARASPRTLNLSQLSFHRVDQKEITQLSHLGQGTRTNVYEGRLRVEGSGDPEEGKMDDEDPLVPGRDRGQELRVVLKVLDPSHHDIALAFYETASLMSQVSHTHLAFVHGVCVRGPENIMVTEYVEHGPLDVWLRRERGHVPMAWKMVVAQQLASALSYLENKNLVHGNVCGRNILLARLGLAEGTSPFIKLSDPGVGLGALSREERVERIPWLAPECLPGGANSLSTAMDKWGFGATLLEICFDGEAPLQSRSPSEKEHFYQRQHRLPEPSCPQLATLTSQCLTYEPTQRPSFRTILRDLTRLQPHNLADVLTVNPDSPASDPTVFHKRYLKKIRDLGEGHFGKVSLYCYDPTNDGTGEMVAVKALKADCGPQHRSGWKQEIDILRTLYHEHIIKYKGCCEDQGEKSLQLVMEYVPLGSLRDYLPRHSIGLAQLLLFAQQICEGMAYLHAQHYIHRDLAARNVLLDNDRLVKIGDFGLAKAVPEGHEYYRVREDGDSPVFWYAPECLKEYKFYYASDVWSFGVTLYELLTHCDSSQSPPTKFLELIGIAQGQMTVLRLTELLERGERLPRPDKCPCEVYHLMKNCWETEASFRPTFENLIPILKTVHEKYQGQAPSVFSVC
Procedure, shortened: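 Recombinant TYK2 (375 ng/mL working solution) with ULight-JAK1 peptide (300 nM working solution) and ATP (30 μM working solution) in HEPES pH 7.5 buffer with MgCl2, EGTA, DTT, Tween20, BSA, reacted 1 h at RT. EDTA-stopped, Eu-anti-phosphotyrosine TR-FRET read at 665 nm; inhibition relative to enzyme-free wells as 100%.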

T1 sequence (P23458 whole entry): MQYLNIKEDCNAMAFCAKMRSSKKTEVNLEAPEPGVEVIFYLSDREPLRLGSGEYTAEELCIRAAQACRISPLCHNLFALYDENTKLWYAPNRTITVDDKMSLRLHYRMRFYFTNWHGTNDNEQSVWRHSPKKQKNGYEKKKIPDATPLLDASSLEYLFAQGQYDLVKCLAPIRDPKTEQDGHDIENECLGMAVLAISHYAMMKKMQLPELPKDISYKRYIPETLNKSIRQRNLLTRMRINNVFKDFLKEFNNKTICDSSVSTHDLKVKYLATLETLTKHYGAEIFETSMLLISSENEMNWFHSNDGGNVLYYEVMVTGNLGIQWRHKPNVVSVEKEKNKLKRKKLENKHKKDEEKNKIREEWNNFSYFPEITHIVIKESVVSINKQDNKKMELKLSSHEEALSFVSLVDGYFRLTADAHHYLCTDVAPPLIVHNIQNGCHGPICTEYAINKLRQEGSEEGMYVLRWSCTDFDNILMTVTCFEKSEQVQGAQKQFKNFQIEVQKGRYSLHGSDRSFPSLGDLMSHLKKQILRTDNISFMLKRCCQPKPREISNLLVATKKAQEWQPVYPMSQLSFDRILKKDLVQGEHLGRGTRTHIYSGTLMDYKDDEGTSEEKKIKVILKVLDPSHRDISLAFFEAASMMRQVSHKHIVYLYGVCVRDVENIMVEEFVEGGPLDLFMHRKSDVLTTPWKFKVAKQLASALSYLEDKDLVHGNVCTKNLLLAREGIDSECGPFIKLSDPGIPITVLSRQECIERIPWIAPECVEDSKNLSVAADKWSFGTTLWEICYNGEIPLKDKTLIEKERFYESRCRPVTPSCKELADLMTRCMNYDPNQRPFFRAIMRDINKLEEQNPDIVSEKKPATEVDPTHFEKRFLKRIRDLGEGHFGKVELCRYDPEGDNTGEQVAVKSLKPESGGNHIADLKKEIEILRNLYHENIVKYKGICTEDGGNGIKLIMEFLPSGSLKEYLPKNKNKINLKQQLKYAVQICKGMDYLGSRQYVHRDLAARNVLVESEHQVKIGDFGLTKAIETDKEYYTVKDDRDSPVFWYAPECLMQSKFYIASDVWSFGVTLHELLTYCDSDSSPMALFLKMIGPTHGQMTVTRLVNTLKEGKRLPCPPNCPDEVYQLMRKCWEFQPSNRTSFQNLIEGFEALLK

## COC1(c2cc(-c3cn(C(C4CC4)C4CC4)c(=O)c4c(N)n[nH]c34)nn2C)CN(S(=O)(=O)C(C)C)C1 [Example 90, 3-amino-5-(dicyclopropylmethyl)-7-(5-(1-(isopropylsulfonyl)-3-methoxyazetidin-3-yl)-1-methyl-1H-pyrazol-3-yl)-1,5-dihydro-4H-pyrazolo[4,3-c]pyridin-4-one]
JAK1
  inhibition at 1 µM: 96%
JAK2
  inhibition at 1 µM: 99%
JAK3
  inhibition at 1 µM: 99%
TYK2
  inhibition at 1 µM: 100%

## C[C@H](C1CC1)n1cc(-c2cc(C(C)(C)O)n(C)n2)c2[nH]nc(N)c2c1=O [Example 91, 3-amino-5-((1R)-1-cyclopropylethyl)-7-(5-(2-hydroxypropan-2-yl)-1-methyl-1H-pyrazol-3-yl)-1,5-dihydro-4H-pyrazolo[4,3-c]pyridin-4-one]
JAK1
  inhibition at 1 µM: 96%
JAK2
  inhibition at 1 µM: 88%
JAK3
  inhibition at 1 µM: 97%
TYK2
  inhibition at 1 µM: 99%

## CC(C)N1CCN(c2cc(-c3cn([C@@H](C)C4CC4)c(=O)c4c(N)n[nH]c34)nn2C)CC1=O [Example 92, 3-amino-5-((1S)-1-cyclopropylethyl)-7-(5-(4-isopropyl-3-oxopiperazin-1-yl)-1-methyl-1H-pyrazol-3-yl)-1,5-dihydro-4H-pyrazolo[4,3-c]pyridin-4-one]
JAK1
  inhibition at 1 µM: 100%
JAK2
  inhibition at 1 µM: 100%
JAK3
  inhibition at 1 µM: 99%
TYK2
  inhibition at 1 µM: 99%

## C[C@@H](C1CC1)n1cc(-c2cc(N3CCC(O)(C(F)(F)F)CC3)n(C)n2)c2[nH]nc(N)c2c1=O [Example 94, 3-amino-5-((1S)-1-cyclopropylethyl)-7-(5-(4-hydroxy-4-(trifluoromethyl)piperidin-1-yl)-1-methyl-1H-pyrazol-3-yl)-1,5-dihydro-4H-pyrazolo[4,3-c]pyridin-4-one]
JAK1
  inhibition at 1 µM: 100%
JAK2
  inhibition at 1 µM: 100%
JAK3
  inhibition at 1 µM: 100%
TYK2
  inhibition at 1 µM: 99%

## C[C@@H](C1CC1)n1cc(-c2cc(N3CCS(=O)(=O)C(C)(C)C3)n(C)n2)c2[nH]nc(N)c2c1=O [Example 95, 3-amino-5-((1S)-1-cyclopropylethyl)-7-(5-(2,2-dimethyl-1,1-dioxidothiomorpholin-4-yl)-1-methyl-1H-pyrazol-3-yl)-1,5-dihydro-4H-pyrazolo[4,3-c]pyridin-4-one]
JAK1
  inhibition at 1 µM: 100%
JAK2
  inhibition at 1 µM: 100%
JAK3
  inhibition at 1 µM: 100%
TYK2
  inhibition at 1 µM: 99%

## C[C@@H](C1CC1)n1cc(-c2cc(N3CCS(=O)(=O)CC3)n(C)n2)c2[nH]nc(N)c2c1=O [Example 96, 3-amino-5-((1S)-1-cyclopropylethyl)-7-(5-(1,1-dioxidothiomorpholin-4-yl)-1-methyl-1H-pyrazol-3-yl)-1,5-dihydro-4H-pyrazolo[4,3-c]pyridin-4-one]
JAK1
  inhibition at 1 µM: 99%
JAK2
  inhibition at 1 µM: 100%
JAK3
  inhibition at 1 µM: 100%
TYK2
  inhibition at 1 µM: 100%

## COC1(c2cc(-c3cn([C@@H](C)C4CC4)c(=O)c4c(N)n[nH]c34)nn2C)CN(C(=O)C(C)C)C1 [Example 97, 3-amino-5-((1S)-1-cyclopropylethyl)-7-(5-(1-isobutyryl-3-methoxyazetidin-3-yl)-1-methyl-1H-pyrazol-3-yl)-1,5-dihydro-4H-pyrazolo[4,3-c]pyridin-4-one]
JAK1
  inhibition at 1 µM: 97%
JAK2
  inhibition at 1 µM: 99%
JAK3
  inhibition at 1 µM: 99%
TYK2
  inhibition at 1 µM: 100%

## COC1(c2cc(-c3cn([C@@H](C)C4CC4)c(=O)c4c(N)n[nH]c34)nn2C)CN(S(=O)(=O)C(C)C)C1 [Example 98, 3-amino-5-((1S)-1-cyclopropylethyl)-7-(5-(1-(isopropylsulfonyl)-3-methoxyazetidin-3-yl)-1-methyl-1H-pyrazol-3-yl)-1,5-dihydro-4H-pyrazolo[4,3-c]pyridin-4-one]
JAK1
  inhibition at 1 µM: 97%
JAK2
  inhibition at 1 µM: 100%
JAK3
  inhibition at 1 µM: 100%
TYK2
  inhibition at 1 µM: 100%

## CC(n1cc(-c2cc(N3CCOCC3)n(C)n2)c2[nH]nc(N)c2c1=O)C(C)(C)O (stereo not drawn) [Example 99, 3-amino-5-(3-hydroxy-3-methylbutan-2-yl)-7-(1-methyl-5-(morpholin-4-yl)-1H-pyrazol-3-yl)-1,5-dihydro-4H-pyrazolo[4,3-c]pyridin-4-one]
JAK1
  inhibition at 1 µM: 83%
JAK2
  inhibition at 1 µM: 85%
JAK3
  inhibition at 1 µM: 97%
TYK2
  inhibition at 1 µM: 99%

## CC(C)[C@@H](C)n1cc(-c2cc(C(C)(C)O)n(C)n2)c2[nH]nc(N)c2c1=O [Example 100, 3-amino-7-(5-(2-hydroxypropan-2-yl)-1-methyl-1H-pyrazol-3-yl)-5-((2R)-3-methylbutan-2-yl)-1,5-dihydro-4H-pyrazolo[4,3-c]pyridin-4-one]
JAK1
  inhibition at 1 µM: 82%
JAK2
  inhibition at 1 µM: 65%
JAK3
  inhibition at 1 µM: 86%
TYK2
  inhibition at 1 µM: 96%

## CC(C)[C@H](C)n1cc(-c2cc(N(C)C(C)C)n(C)n2)c2[nH]nc(N)c2c1=O [Example 101, 3-amino-7-(5-(isopropyl(methyl)amino)-1-methyl-1H-pyrazol-3-yl)-5-((2S)-3-methylbutan-2-yl)-1,5-dihydro-4H-pyrazolo[4,3-c]pyridin-4-one]
JAK1
  inhibition at 1 µM: 96%
JAK2
  inhibition at 1 µM: 97%
JAK3
  inhibition at 1 µM: 99%
TYK2
  inhibition at 1 µM: 100%

## CC(C)[C@H](C)n1cc(-c2cc(N3CCN(S(=O)(=O)C(C)C)CC3)n(C)n2)c2[nH]nc(N)c2c1=O [Example 102, 3-amino-7-(5-(4-(isopropylsulfonyl)piperazin-1-yl)-1-methyl-1H-pyrazol-3-yl)-5-((2S)-3-methylbutan-2-yl)-1,5-dihydro-4H-pyrazolo[4,3-c]pyridin-4-one]
JAK1
  inhibition at 1 µM: 97%
JAK2
  inhibition at 1 µM: 98%
JAK3
  inhibition at 1 µM: 99%
TYK2
  inhibition at 1 µM: 100%

## CC(C)[C@H](C)n1cc(-c2cc(N3CCCC3CN(C)C)n(C)n2)c2[nH]nc(N)c2c1=O (stereo partly drawn) [Example 103, 3-amino-7-(5-(2-((dimethylamino)methyl)pyrrolidin-1-yl)-1-methyl-1H-pyrazol-3-yl)-5-((2S)-3-methylbutan-2-yl)-1,5-dihydro-4H-pyrazolo[4,3-c]pyridin-4-one]
JAK1
  JAK1 enzyme inhibitory activity (%, 1 μM): 51%
JAK2
  inhibition at 1 µM: 93%
JAK3
  inhibition at 1 µM: 97%
TYK2
  inhibition at 1 µM: 96%

## CC(C)[C@H](C)n1cc(-c2cc(N3CCCC3CN(C)C)n(C)n2)c2[nH]nc(N)c2c1=O (stereo partly drawn) [Example 104, 3-amino-7-(5-(2-((dimethylamino)methyl)pyrrolidin-1-yl)-1-methyl-1H-pyrazol-3-yl)-5-((2S)-3-methylbutan-2-yl)-1,5-dihydro-4H-pyrazolo[4,3-c]pyridin-4-one]
JAK1
  JAK1 enzyme inhibitory activity (%, 1 μM): 72%
JAK2; 1 µM
  JAK2 enzyme inhibitory activity (%, 1 μM): 96%
JAK3; 1 µM
  JAK3 enzyme inhibitory activity (%, 1 μM): 98%
TYK2; 1 µM
  TYK2 enzyme inhibitory activity (%, 1 μM): 100%

## CC(C)[C@H](C)n1cc(-c2cc(N3CC4(COC4)C3)n(C)n2)c2[nH]nc(N)c2c1=O [Example 105, 3-amino-5-((2S)-3-methylbutan-2-yl)-7-(1-methyl-5-(2-oxa-6-azaspiro[3.3]hept-6-yl)-1H-pyrazol-3-yl)-1,5-dihydro-4H-pyrazolo[4,3-c]pyridin-4-one]
JAK1
  inhibition at 1 µM: 97%
JAK2
  inhibition at 1 µM: 99%
JAK3
  inhibition at 1 µM: 99%
TYK2
  inhibition at 1 µM: 99%
